Measurements reported in patent US4120864A, “1,2,4-4H-triazole derivatives” (Rohm and Haas Company, priority 1972, dated 1978).
Read-outs that look alike come from different tables or passages of the source.

Key:
[1] = tested on: wheat leaf rust, Puccinia recondita; test: whole plant or invertebrate; type: in vivo; details: foliar; for pest or weed control at 280.212 g/ha: read-out: % Control (with 1" of rain), foliar, 0.25 lb., 1" of rain; for pest or weed control at 1120.85 g/ha: read-out: % Control (with 1" of rain), foliar, 1 lb., 1" of rain
[2] = tested on: wheat leaf rust, Puccinia recondita; type: in vivo
[3] = tested on: wheat leaf rust, Puccinia recondita; test: whole plant or invertebrate; type: in vivo; details: foliar; for pest or weed control at 280.212 g/ha: read-out: % Control (without rain), foliar, 0.25 lb.; for pest or weed control at 1120.85 g/ha: read-out: % Control (without rain), foliar, 1 lb.
Pythium ultimum = details: in vivo
[4] = tested on: wheat leaf rust, Puccinia recondita; test: Foliar systemic activity on leaf rust; type: in vivo
Excerpt: Another type of systemic test was run in which pots of approximately 5 inch high wheat plants were sprayed with varying concentrations of the test compound. Thirty-six hours later they were sprayed six minutes in a rain machine which amounted to about one inch of normal rainfall. The plants were then placed in a greenhouse for 7 days and then inoculated with a spore suspension of wheat leaf rust, Puccinia recondita. About 7 days later lesion counts were made on ten leaves representing the sprayed leaves and new growth from each replicate and compared with similar pots of wheat plants which were untreated with a chemical and the percent disease control determined. Disease control on the new growth is a measure of systemic activity. The commercial product known by the trademarked name Plantvax, which is 2,3-dihydro-5-carboxanilido-6-methyl-1,4-oxathiin-4,4-dioxide, was used as a standard.

[5] = tested on: leaf rust on spring wheat; test: Systemic field test, leaf rust on spring wheat; type: in vivo; details: 36 days after treatment
[6] = tested on: leaf rust on winter wheat; test: Systemic field test, leaf rust on winter wheat; type: in vivo; details: 46 days after application, untreated 1109
Phytophthora infestans = type: in vivo; details: foliar application at 1200 ppm or root uptake from treated soil containing 20 ppm
[7] = tested on: rice blast, Piricularia oryzae; type: in vivo; details: foliar application, 1200 ppm
Botrytis cinerea = details: in vivo

Molecule | pest or weed control at 280.212 g/ha [1] | pest or weed control at 1120.85 g/ha [1] | % Systemic Wheat Leaf Rust Control ([2]; 2.5 ppm in soil) | % Systemic Wheat Leaf Rust Control ([2]; 5 ppm in soil) | % Systemic Wheat Leaf Rust Control ([2]; 10 ppm in soil) | pest or weed control at 280.212 g/ha [3] | pest or weed control at 1120.85 g/ha [3] | % Rust Control, New growth ([4]; 1/2 lb./100 gal.) | % Rust Control, Sprayed Leaf ([4]; 1/2 lb./100 gal.) | % Rust Control, New growth ([4]; 1/6 lb./100 gal.) | % Rust Control, Sprayed Leaf ([4]; 1/6 lb./100 gal.) | % Rust Control, New growth ([4]; 1/12 lb./100 gal.) | % Rust Control, Sprayed Leaf ([4]; 1/12 lb./100 gal.) | control of Phytophthora infestans (Phytophthora infestans) | other results
CCCCn1cnnc1SC(=O)c1ccc(OC)cc1 [Example 121, 3-(4-methoxybenzoylmercapto)-4-n-butyl-1,2,4-triazole] | 100% | 100% | 98% | 100% | 100% | 90% | 98% | 92% | 95% | 79% | 81% | 77% | 91% | – | control of Pythium ultimum (Pythium ultimum): excellent control
CC1=C(C(=O)Nc2ccccc2)S(=O)(=O)CCO1 [Plantvax, 2,3-dihydro-5-carboxanilido-6-methyl-1,4-oxathiin-4,4-dioxide, reference compound] | – | – | – | – | – | – | – | 38% | 49% | 32% | 37% | – | 3% | – | % Leaves infected ([5]; 0.5 lbs./acre): 79%; % Leaves infected ([5]; 1 lbs./acre): 78%; % Leaves infected ([5]; 2 lbs./acre): 75%; No. of lesions/800 leaves ([6]; 0.5 lbs./acre): 1113 lesions/800 leaves; No. of lesions/800 leaves ([6]; 1 lbs./acre): 1017 lesions/800 leaves; No. of lesions/800 leaves ([6]; 2 lbs./acre): 690 lesions/800 leaves
CCCCCCCCn1cnnc1 [Example 10, 4-n-octyl-1,2,4-triazole] | – | – | – | – | – | – | – | – | – | – | – | – | – | good control | –
OCCCn1cnnc1 [Example 18, 4-(3-hydroxypropyl)-1,2,4-triazole] | 0% | 0% | – | – | – | 0% | 0% | – | – | – | – | – | – | good control | –
c1ccc(OCCn2cnnc2)cc1 [Example 25, 4-(2-phenoxyethyl)-1,2,4-triazole] | 0% | 0% | – | – | – | 0% | 0% | – | – | – | – | – | – | good control | –
CCCCCCCCCCCCn1cnnc1 [Example 13, 4-n-dodecyl-1,2,4-triazole] | 0% | 30% | – | – | – | 20% | 60% | – | – | – | – | – | – | – | control of rice blast, Piricularia oryzae [7]: 95-100%
4-(2-ethylhexyl)-1,2,4-triazole [Example 11] | – | – | – | – | – | – | – | – | – | – | – | – | – | – | control of Botrytis cinerea on broad bean (Botrytis cinerea): 50-85%
CCOCCCn1cnnc1 [Example 47] | 30% | 55% | – | – | – | 80% | 80% | – | – | – | – | – | – | good control | –
CCCCn1c(S)nnc1C(=O)O [Example 94, 3-mercapto-4-n-butyl-5-carboxy-1,2,4-triazole] | 82% | 83% | 95% | 99% | 100% | 100% | 100% | 86% | 99% | 73% | 91% | 61% | 71% | – | % Leaves infected ([5]; 0.5 lbs./acre): 35%; % Leaves infected ([5]; 1 lbs./acre): 17%; % Leaves infected ([5]; 2 lbs./acre): 7%
CCOCCn1cnnc1 [Example 24, 4-(2-ethoxyethyl)-1,2,4-triazole] | 50% | 95% | – | – | – | 80% | 95% | – | – | – | – | – | – | good control | –
CCCCn1cnnc1S [Example 76, 3-mercapto-4-n-butyl-1,2,4-triazole] | 100% | 100% | 83% | 97% | 100% | 100% | 100% | 90% | 97% | 77% | 88% | 75% | 80% | – | % Leaves infected ([5]; 0.5 lbs./acre): 23%; % Leaves infected ([5]; 1 lbs./acre): 10%; % Leaves infected ([5]; 2 lbs./acre): 4%; No. of lesions/800 leaves ([6]; 0.5 lbs./acre): 453 lesions/800 leaves; No. of lesions/800 leaves ([6]; 1 lbs./acre): 239 lesions/800 leaves; No. of lesions/800 leaves ([6]; 2 lbs./acre): 89 lesions/800 leaves
Sc1nncn1Cc1ccccc1 [Example 84, 3-mercapto-4-benzyl-1,2,4-triazole] | 100% | 100% | 0% | 34% | 64% | 100% | 100% | 54% | 78% | 34% | 63% | 36% | 54% | – | –
